From patent US11180494B2, “Substituted amino acids as integrin inhibitors” (Pliant Therapeutics, Inc., priority 2018, dated 2021)

biological target: human integrin αvβ6 (Homo sapiens (Human), UniProt P06756+P18564); assay: Proximity-based integrin receptor binding assay (ALPHASCREEN) for inhibitor potency; conditions: inhibition of binding of TGF-b1 LAP to human integrin αvβ6; values given in ranges
Method in brief: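 AlphaScreen: integrin, compound, TGF-b1 LAP, biotinylated anti-LAP antibody and acceptor beads incubated 2 hours, then streptavidin donor beads 30 minutes, at room temperature in 50 mM Tris-HCl pH 7.5, 0.1% BSA, 1 mM CaCl2 and MgCl2. Excitation 680 nm, emission 520-620 nm; IC50 by four-parameter logistic fit.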

Sequence of human integrin αvβ6 (P06756 31-992): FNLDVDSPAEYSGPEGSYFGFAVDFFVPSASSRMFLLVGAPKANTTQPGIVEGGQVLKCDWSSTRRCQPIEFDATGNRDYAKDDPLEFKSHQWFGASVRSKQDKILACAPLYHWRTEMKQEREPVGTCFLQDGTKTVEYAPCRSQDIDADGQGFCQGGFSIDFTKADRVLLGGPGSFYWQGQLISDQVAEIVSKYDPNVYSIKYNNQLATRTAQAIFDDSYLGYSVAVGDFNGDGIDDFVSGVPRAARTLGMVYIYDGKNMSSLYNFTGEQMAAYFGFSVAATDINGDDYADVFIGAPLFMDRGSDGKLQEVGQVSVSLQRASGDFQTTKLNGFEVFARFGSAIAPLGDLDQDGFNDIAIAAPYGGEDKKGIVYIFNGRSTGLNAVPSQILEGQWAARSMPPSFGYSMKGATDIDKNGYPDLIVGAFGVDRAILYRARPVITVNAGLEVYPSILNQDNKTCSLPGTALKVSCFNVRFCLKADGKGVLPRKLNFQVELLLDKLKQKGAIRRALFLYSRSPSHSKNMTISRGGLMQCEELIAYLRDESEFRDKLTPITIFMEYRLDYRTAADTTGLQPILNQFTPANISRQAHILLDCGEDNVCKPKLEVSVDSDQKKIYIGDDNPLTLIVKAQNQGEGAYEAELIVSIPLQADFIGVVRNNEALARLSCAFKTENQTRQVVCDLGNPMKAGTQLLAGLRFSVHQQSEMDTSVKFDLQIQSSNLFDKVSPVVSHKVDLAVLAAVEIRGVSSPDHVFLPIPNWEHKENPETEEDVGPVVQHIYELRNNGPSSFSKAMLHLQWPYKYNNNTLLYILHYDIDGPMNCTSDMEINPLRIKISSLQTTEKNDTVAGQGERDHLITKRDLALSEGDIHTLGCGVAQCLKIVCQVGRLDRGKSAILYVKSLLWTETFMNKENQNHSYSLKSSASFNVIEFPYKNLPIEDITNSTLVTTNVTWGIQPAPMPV
Sequence of human integrin αvβ6 (P18564 22-707): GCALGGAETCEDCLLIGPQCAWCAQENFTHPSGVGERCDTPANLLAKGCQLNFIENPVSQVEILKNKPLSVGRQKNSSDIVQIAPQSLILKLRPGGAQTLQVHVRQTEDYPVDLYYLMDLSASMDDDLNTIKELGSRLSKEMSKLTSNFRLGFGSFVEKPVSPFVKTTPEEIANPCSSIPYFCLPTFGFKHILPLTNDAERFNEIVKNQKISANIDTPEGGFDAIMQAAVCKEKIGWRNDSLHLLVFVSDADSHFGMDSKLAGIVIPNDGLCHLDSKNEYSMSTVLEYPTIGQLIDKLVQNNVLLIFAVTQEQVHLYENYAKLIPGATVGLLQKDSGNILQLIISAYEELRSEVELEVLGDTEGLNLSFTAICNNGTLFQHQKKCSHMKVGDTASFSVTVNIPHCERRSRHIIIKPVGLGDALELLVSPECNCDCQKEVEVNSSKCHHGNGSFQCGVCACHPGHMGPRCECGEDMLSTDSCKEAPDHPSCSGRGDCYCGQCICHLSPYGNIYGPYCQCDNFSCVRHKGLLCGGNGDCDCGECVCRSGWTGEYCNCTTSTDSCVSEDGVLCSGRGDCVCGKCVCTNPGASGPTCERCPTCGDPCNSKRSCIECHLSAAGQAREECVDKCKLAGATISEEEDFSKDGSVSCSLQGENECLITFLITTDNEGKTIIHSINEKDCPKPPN

How did the IC50 turn out when CC(=O)N1CC[C@H](OC(=O)N[C@@H](CCO[C@H]2C[C@H](CCc3ccc4c(n3)NCCC4)C2)C(=O)O)C1 [Compound 137, N—((((S)-1-acetylpyrrolidin-3-yl)oxy)carbonyl)-O-(trans-3-(2-(5,6,7,8-tetrahydro-1,8-naphthyridin-2-yl)ethyl)cyclobutyl)homoserine] was run?
Its IC50 is 0.25 to 1 µM.

Which IC50 does the source give for CC(C)(C)NC(=O)N[C@@H](CCO[C@H]1C[C@H](CCc2ccc3c(n2)NCCC3)C1)C(=O)O [Compound 118, N-(tert-butylcarbamoyl)-O-(trans-3-(2-(5,6,7,8-tetrahydro-1,8-naphthyridin-2-yl)ethyl)cyclobutyl)homoserine] here?
The IC50 was less than 0.05 µM.

How did the IC50 turn out when CC(C)(C)OC(=O)NCC1(C(=O)N[C@@H](CCO[C@H]2C[C@@H](CCc3ccc4c(n3)NCCC4)C2)C(=O)O)CCOCC1 [Compound 184, N-(4-(((tert-butoxycarbonyl)amino)methyl)tetrahydro-2H-pyran-4-carbonyl)-O-(cis-3-(2-(5,6,7,8-tetrahydro-1,8-naphthyridin-2-yl)ethyl)cyclobutyl)homoserine] was run?
Its IC50 is less than 0.05 µM.

How did the IC50 turn out when O=C(NC(CCOC1CC(CCc2ccc3c(n2)NCCC3)C1)C(=O)O)c1cc(F)cc(C(F)(F)F)c1 (stereo not shown) [Compound 10, N-(3-fluoro-5-(trifluoromethyl)benzoyl)-O-(3-(2-(5,6,7,8-tetrahydro-1,8-naphthyridin-2-yl)ethyl)cyclobutyl)homoserine] was run?
The IC50 was 0.05 to 0.25 µM.

How did the IC50 turn out when CC(=O)N1CC(OC(=O)N[C@@H](CCO[C@H]2C[C@H](CCc3ccc4c(n3)NCCC4)C2)C(=O)O)C1 [Compound 150, N-(((1-acetylazetidin-3-yl)oxy)carbonyl)-O-(trans-3-(2-(5,6,7,8-tetrahydro-1,8-naphthyridin-2-yl)ethyl)cyclobutyl)homoserine] was run?
Its IC50 is 0.25 to 1 µM.

For CC(C)(C)C(=O)NC(CCO[C@H]1C[C@H](CCc2ccc3c(n2)NCCC3)C1)C(=O)O (stereo partly drawn) [Compound 109, N-pivaloyl-O-(trans-3-(2-(5,6,7,8-tetrahydro-1,8-naphthyridin-2-yl)ethyl)cyclobutyl)homoserine], which IC50 is on record?
The IC50 was less than 0.05 µM.

With CC(C)(C)c1ccc(C2(C(=O)N[C@@H](CCO[C@H]3C[C@H](CCc4ccc5c(n4)NCCC5)C3)C(=O)O)CCC2)cc1 [Compound 190, N-(1-(4-(tert-butyl)phenyl)cyclobutane-1-carbonyl)-O-(trans-3-(2-(5,6,7,8-tetrahydro-1,8-naphthyridin-2-yl)ethyl)cyclobutyl)homoserine] as the molecule, how does the IC50 read?
Its IC50 is less than 0.05 µM.

How did the IC50 turn out when O=C(NC(CCOCCCCc1ccc2c(n1)NCCC2)C(=O)O)c1ccccc1 (stereo not shown) [Compound 6, N-benzoyl-O-(4-(5,6,7,8-tetrahydro-1,8-naphthyridin-2-yl)butyl)homoserine] was run?
The IC50 was 0.25 to 1 µM.

How did the IC50 turn out when O=C(O)C(CCO[C@H]1C[C@H](CCc2ccc3c(n2)NCCC3)C1)NC(=O)[C@@H](CO)c1ccccc1 (stereo partly drawn) [Compound 42, N—((R)-3-hydroxy-2-phenylpropanoyl)-O-(trans-3-(2-(5,6,7,8-tetrahydro-1,8-naphthyridin-2-yl)ethyl)cyclobutyl)homoserine] was run?
Its IC50 is 0.05 to 0.25 µM.

With O=C(N[C@@H](CCO[C@H]1C[C@H](CCc2ccc3c(n2)NCCC3)C1)C(=O)O)O[C@H]1CC[C@H](c2ccccc2)CC1 [Compound 148, N-(((trans-4-phenylcyclohexyl)oxy)carbonyl)-O-(trans-3-(2-(5,6,7,8-tetrahydro-1,8-naphthyridin-2-yl)ethyl)cyclobutyl)homoserine] as the molecule, how does the IC50 read?
Its IC50 is 0.25 to 1 µM.

How did the IC50 turn out when O=C(N[C@@H](CCO[C@H]1C[C@H](CCc2ccc3c(n2)NCCC3)C1)C(=O)O)c1ccc(F)c(F)c1 [Compound 29, N-(3,4-difluorobenzoyl)-O-(trans-3-(2-(5,6,7,8-tetrahydro-1,8-naphthyridin-2-yl)ethyl)cyclobutyl)homoserine] was run?
The IC50 was less than 0.05 µM.

How did the IC50 turn out when O=C(N[C@@H](CCO[C@H]1C[C@H](CCc2ccc3c(n2)NCCC3)C1)C(=O)O)c1cc(F)cc(F)c1 [Compound 28, N-(3,5-difluorobenzoyl)-O-(trans-3-(2-(5,6,7,8-tetrahydro-1,8-naphthyridin-2-yl)ethyl)cyclobutyl)homoserine] was run?
The IC50 was less than 0.05 µM.

For CC(C)(C)OC(=O)N1CC(C)(OC(=O)N[C@@H](CCO[C@H]2C[C@H](CCc3ccc4c(n3)NCCC4)C2)C(=O)O)C1 [Compound 127, N-(((1-(tert-butoxycarbonyl)-3-methylazetidin-3-yl)oxy)carbonyl)-O-(trans-3-(2-(5,6,7,8-tetrahydro-1,8-naphthyridin-2-yl)ethyl)cyclobutyl)homoserine], which IC50 is on record?
The IC50 was less than 0.05 µM.

With O=C(O)C(CCO[C@H]1C[C@H](CCc2ccc3c(n2)NCCC3)C1)NC(=O)[C@H](O)c1ccccc1 (stereo partly drawn) [Compound 80, N—((R)-2-hydroxy-2-phenylacetyl)-O-(trans-3-(2-(5,6,7,8-tetrahydro-1,8-naphthyridin-2-yl)ethyl)cyclobutyl)homoserine] as the molecule, how does the IC50 read?
The IC50 was 0.05 to 0.25 µM.

For O=C(O)C(CCO[C@H]1C[C@H](CCc2ccc3c(n2)NCCC3)C1)NC(=O)C1(c2ccccc2)CCC1 (stereo partly drawn) [Compound 84, N-(1-phenylcyclobutane-1-carbonyl)-O-(trans-3-(2-(5,6,7,8-tetrahydro-1,8-naphthyridin-2-yl)ethyl)cyclobutyl)homoserine], which IC50 is on record?
The IC50 was less than 0.05 µM.

Which IC50 does the source give for O=C(O)[C@H](CCO[C@H]1C[C@H](CCc2ccc3c(n2)NCCC3)C1)NC(=O)C1(C(F)(F)F)CCOCC1 [Compound 174, O-(trans-3-(2-(5,6,7,8-tetrahydro-1,8-naphthyridin-2-yl)ethyl)cyclobutyl)-N-(4-(trifluoromethyl)tetrahydro-2H-pyran-4-carbonyl)homoserine] here?
The IC50 was less than 0.05 µM.

How did the IC50 turn out when O=C(O)C(CCOCCCCc1ccc2c(n1)NCCC2)NC(=O)[C@@H](O)c1ccccc1 (stereo partly drawn) [Compound 74, N—((S)-2-hydroxy-2-phenylacetyl)-O-(4-(5,6,7,8-tetrahydro-1,8-naphthyridin-2-yl)butyl)homoserine] was run?
Its IC50 is greater than 1 µM.

For O=C(O)[C@H](CCO[C@H]1C[C@@H](CCc2ccc3c(n2)NCCC3)C1)NC(=O)C1(C(F)(F)F)CCOCC1 [Compound 183, O-(cis-3-(2-(5,6,7,8-tetrahydro-1,8-naphthyridin-2-yl)ethyl)cyclobutyl)-N-(4-(trifluoromethyl)tetrahydro-2H-pyran-4-carbonyl)homoserine], which IC50 is on record?
Its IC50 is 0.05 to 0.25 µM.

Which IC50 does the source give for O=C(O)C(CCO[C@H]1C[C@H](CCc2ccc3c(n2)NCCC3)C1)NC(=O)[C@@H](CO)c1ccccc1 (stereo partly drawn) [Compound 43, N—((R)-3-hydroxy-2-phenylpropanoyl)-O-(trans-3-(2-(5,6,7,8-tetrahydro-1,8-naphthyridin-2-yl)ethyl)cyclobutyl)homoserine] here?
Its IC50 is 0.25 to 1 µM.

For O=C(N[C@@H](CCO[C@H]1C[C@H](CCc2ccc3c(n2)NCCC3)C1)C(=O)O)c1cccnc1 [Compound 36, N-nicotinoyl-O-(trans-3-(2-(5,6,7,8-tetrahydro-1,8-naphthyridin-2-yl)ethyl)cyclobutyl)homoserine], which IC50 is on record?
The IC50 was less than 0.05 µM.

How did the IC50 turn out when O=C(NC(CCO[C@H]1C[C@H](CCc2ccc3c(n2)NCCC3)C1)C(=O)O)C1CCCC(F)(F)C1 (stereo partly drawn) [Compound 161, N-(3,3-difluorocyclohexane-1-carbonyl)-O-(trans-3-(2-(5,6,7,8-tetrahydro-1,8-naphthyridin-2-yl)ethyl)cyclobutyl)homoserine] was run?
The IC50 was less than 0.05 µM.

For Cn1cc(-c2cccc(C(=O)NC(CCO[C@H]3C[C@H](CCc4ccc5c(n4)NCCC5)C3)C(=O)O)c2)cn1 (stereo partly shown) [Compound 72], which IC50 is on record?
Its IC50 is less than 0.05 µM.

With O=C(O)[C@H](CCOCCCCc1ccc2c(n1)NCCC2)NC(=O)[C@H](O)c1ccccc1 [Compound 76, N—((R)-2-hydroxy-2-phenylacetyl)-O-(4-(5,6,7,8-tetrahydro-1,8-naphthyridin-2-yl)butyl)homoserine] as the molecule, how does the IC50 read?
Its IC50 is 0.25 to 1 µM.

How did the IC50 turn out when O=C(N[C@@H](CCO[C@H]1C[C@H](CCc2ccc3c(n2)NCCC3)C1)C(=O)O)C1CCc2ccccc21 (single isomer, unassigned) [110**,†] was run?
Its IC50 is 0.05 to 0.25 µM.

For CCC(CC)CC(=O)NC(CCO[C@H]1C[C@H](CCc2ccc3c(n2)NCCC3)C1)C(=O)O (stereo partly drawn) [Compound 63, N-(3-ethylpentanoyl)-O-(trans-3-(2-(5,6,7,8-tetrahydro-1,8-naphthyridin-2-yl)ethyl)cyclobutyl)homoserine], which IC50 is on record?
The IC50 was less than 0.05 µM.

Which IC50 does the source give for O=C(O)C(CCOCCCCc1ccc2c(n1)NCCC2)NC(=O)[C@@H](O)c1ccccc1 (stereo partly drawn) [Compound 75, N—((S)-2-hydroxy-2-phenylacetyl)-O-(4-(5,6,7,8-tetrahydro-1,8-naphthyridin-2-yl)butyl)homoserine] here?
The IC50 was 0.25 to 1 µM.

For CC(C)(OC(=O)N[C@@H](CCO[C@H]1C[C@H](CCc2ccc3c(n2)NCCC3)C1)C(=O)O)C(F)(F)F [Compound 115, O-(trans-3-(2-(5,6,7,8-tetrahydro-1,8-naphthyridin-2-yl)ethyl)cyclobutyl)-N-(((1,1,1-trifluoro-2-methylpropan-2-yl)oxy)carbonyl)homoserine], which IC50 is on record?
Its IC50 is less than 0.05 µM.

How did the IC50 turn out when CC1(C(=O)NC(CCO[C@H]2C[C@H](CCc3ccc4c(n3)NCCC4)C2)C(=O)O)COC1 (stereo partly drawn) [Compound 103, N-(3-methyloxetane-3-carbonyl)-O-(trans-3-(2-(5,6,7,8-tetrahydro-1,8-naphthyridin-2-yl)ethyl)cyclobutyl)homoserine] was run?
The IC50 was less than 0.05 µM.

Which IC50 does the source give for Cc1ccc2c(c1)N(C(=O)C1(C(=O)N[C@@H](CCO[C@H]3C[C@H](CCc4ccc5c(n4)NCCC5)C3)C(=O)O)CC1)CC2 [Compound 182, N-(1-(6-methylindoline-1-carbonyl)cyclopropane-1-carbonyl)-O-(trans-3-(2-(5,6,7,8-tetrahydro-1,8-naphthyridin-2-yl)ethyl)cyclobutyl)homoserine] here?
Its IC50 is 0.05 to 0.25 µM.

How did the IC50 turn out when CS(=O)(=O)CCCC(=O)N[C@@H](CCO[C@H]1C[C@H](CCc2ccc3c(n2)NCCC3)C1)C(=O)O [Compound 135, N-(4-(methylsulfonyl)butanoyl)-O-(trans-3-(2-(5,6,7,8-tetrahydro-1,8-naphthyridin-2-yl)ethyl)cyclobutyl)homoserine] was run?
The IC50 was 0.05 to 0.25 µM.

With CC1(CC(=O)N[C@@H](CCO[C@H]2C[C@H](CCc3ccc4c(n3)NCCC4)C2)C(=O)O)CC1 [Compound 125, N-(2-(1-methylcyclopropyl)acetyl)-O-(trans-3-(2-(5,6,7,8-tetrahydro-1,8-naphthyridin-2-yl)ethyl)cyclobutyl)homoserine] as the molecule, how does the IC50 read?
Its IC50 is 0.05 to 0.25 µM.
